# According to US10329542B2, “HBV RNAse H purification and enzyme inhibitors” (Saint Louis University, priority 2012, dated 2019):
# Entries after “also recorded” stand apart in the source; their conditions may differ.
# Tests used:
# human RNAseH1 = biological target: T1, human RNAseH1 (Homo sapiens, UniProt O60930); assay: Oligonucleotide-directed RNAseH assay, recombinant human RNAseH1; type: biochemical; conditions: for Inhibition of human RNAseH1: 10 μM, compared directly with HRHPL; for Activity vs. human RNAseH1: class by concentration giving inhibition (10, 20, 60 μM)
# T1 construct: hexahistidine (N); made in house; host or cells: E. coli BL21 codon+
# T1 sequence (O60930 1-286): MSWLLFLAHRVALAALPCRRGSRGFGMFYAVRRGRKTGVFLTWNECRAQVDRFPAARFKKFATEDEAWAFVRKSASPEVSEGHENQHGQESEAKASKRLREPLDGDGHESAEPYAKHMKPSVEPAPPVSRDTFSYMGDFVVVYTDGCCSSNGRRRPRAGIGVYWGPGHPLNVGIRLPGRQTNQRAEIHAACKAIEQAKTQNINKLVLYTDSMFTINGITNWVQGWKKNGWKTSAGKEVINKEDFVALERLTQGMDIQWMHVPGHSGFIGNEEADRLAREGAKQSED
# Summary of the method: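 His-tagged human RNAseH1, expressed in E. coli and titrated to an activity matching the HBV enzyme, was incubated with internally 32P-labelled RNA plus a complementary DNA oligonucleotide. Reactions ran for 90 min at 42 °C in 65 mM Tris pH 8.0, 190 mM NaCl and 5 mM MgCl2, with 1% DMSO. Cleavage was measured by SDS-PAGE autoradiography.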
# HBV genotype C RNAseH = assay: Oligonucleotide-directed RNAseH cleavage assay, HBV genotype C; type: biochemical, Hepatitis B virus; conditions: class by concentration giving inhibition (10, 20, 60 μM)
# Protocol: For the oligonucleotide-directed RNAseH cleavage assay (Gong et al., 2001), 6 μl protein extract (typical protein concentration 2.8 mg/ml) was mixed with 0.5 μg internally ^32P-labeled DRF+ RNA (nucleotides 2401-2605 of the duck HBV genome plus 60 nucleotides of flanking sequences from pBluescript) and 3 μg oligonucleotide D2507- or its corresponding negative control D2526+ on ice in 20 μl under the conditions in Table 1. Some reactions in FIG. 5 employed oligonucleotide D2543M-Sal or its D2453+ negative control as indicated. The reactions were incubated at 42° C. for 90 min. and terminated by addition of Laemmli protein loading buffer and boiling. The samples were resolved by 12% SDS-PAGE, the gels were stained with Coomassie blue to monitor protein loading, and labeled RNA was detected by autoradiography. Candidate inhibitors were dissolved in DMSO and added at the indicated concentrations during assembly of the reactions. Control reactions lacking the compounds contained DMSO as a vehicle control. The RNAseH autoradiograms were scanned and quantified with ImageJ. The oligonucleotides were: D2526+([…]; SEQ ID NO:8), D2507-([…]; SEQ ID NO:9), D2453+([…]; SEQ ID NO:10), and D2543M-Sal ([…]; SEQ ID NO:11).
# Incremental improvements were developed in extraction of the HBV RNAseH from the bacterial cell pellets since the data were generated for Examples 1 and 2. Key among these was shifting from using a cup sonicator to a probe sonicator and reducing the duration of the sonication period from 3×60 second bursts to 3×20 second bursts. When the […] genotype C clone that had inconsistent activity under the old extraction conditions (FIG. 6C) was isolated under these conditions, it became consistently and robustly active (FIG. 16).
smiles,measurement,setting,value
Cc1c2cc(O)c(=O)cc-2oc2cc(O)c(O)cc12 [Compound 8],Inhibition of human RNAseH1,human RNAseH1,inhibited RNAseH1 well
same,Activity vs. human RNAseH1,human RNAseH1,+++ (+++ inhibition at 10 μM)
"COc1cc2c(cc1Cc1cccc(Cl)c1F)c(=O)c(C(=O)O)cn2[C@H](CO)C(C)C [Compound 10, Elvitegravir, reference compound]",Activity vs. HBV Biochemical vs. gtC,HBV genotype C RNAseH,++ (++ inhibition at 20 μM)
same,Inhibition of human RNAseH1,human RNAseH1,had no effect on RNAseH1
same,Activity vs. human RNAseH1,human RNAseH1,− (− no inhibition at 60 μM)
"Cc1nnc(C(=O)NC(C)(C)c2nc(C(=O)NCc3ccc(F)cc3)c(O)c(=O)n2C)o1 [Compound 11, Raltegravir, reference compound]",Activity vs. HBV Biochemical vs. gtC,HBV genotype C RNAseH,++ (++ inhibition at 20 μM)
same,Inhibition of human RNAseH1,human RNAseH1,had no effect on RNAseH1
same,Activity vs. human RNAseH1,human RNAseH1,− (− no inhibition at 60 μM)
"NCc1ccc(-c2ccc(Cc3cc(=O)n(O)c4ncccc34)cc2)cc1 [Compound 12, napthyridinone]",Activity vs. HBV Biochemical vs. gtC,HBV genotype C RNAseH,+++ (+++ inhibition at 10 μM)
same,Inhibition of human RNAseH1,human RNAseH1,inhibited it weakly
CCOc1ccc(-c2c3cc(O)c(=O)cc-3oc3cc(O)c(O)cc23)cc1 [Compound 30],Activity vs. HBV Biochemical vs. gtC,HBV genotype C RNAseH,++ (++ inhibition at 20 μM)
same,Activity vs. human RNAseH1,human RNAseH1,+++ (+++ inhibition at 10 μM)
Cc1cc(=O)oc2cc(O)c(O)cc12 [Compound 34],Activity vs. HBV Biochemical vs. gtC,HBV genotype C RNAseH,+++ (+++ inhibition at 10 μM)
same,Activity vs. human RNAseH1,human RNAseH1,+ (+ inhibition at 60 μM)
"CC(C)c1ccc(O)c(=O)c(O)c1 [Compound 46, beta-thujaplicinol]",Activity vs. HBV Biochemical vs. gtC,HBV genotype C RNAseH,+++ (+++ inhibition at 10 μM)
same,Effect on human RNAseH1,"human RNAseH1; 0, 5, or 20 μM",had little effect on the human RNAseH1
same,Effect on human RNAseH1 activity,"human RNAseH1; 0.02 to 100 μM, listed as βTJ",had no effect on RNAseH1 activity; also recorded: failed to inhibit recombinant human RNAseH1
same,Activity vs. human RNAseH1,human RNAseH1,− (− no inhibition at 60 μM)
